This note sets out measurements from patent US12479847B2 (DANA-FARBER CANCER INSTITUTE, INC., priority 2019, dated 2025).

Common to all, as to test: KINOMEscan (ScanMAX) kinase profiling
Holding throughout (format): binding

Experiment [1] addresses T1, panel of 468 kinases (Homo sapiens, UniProt P36888, D835Y).
T1 construct: purchased KINOMEscan (ScanMAX) service
T1 sequence (P36888 27-993 D835Y): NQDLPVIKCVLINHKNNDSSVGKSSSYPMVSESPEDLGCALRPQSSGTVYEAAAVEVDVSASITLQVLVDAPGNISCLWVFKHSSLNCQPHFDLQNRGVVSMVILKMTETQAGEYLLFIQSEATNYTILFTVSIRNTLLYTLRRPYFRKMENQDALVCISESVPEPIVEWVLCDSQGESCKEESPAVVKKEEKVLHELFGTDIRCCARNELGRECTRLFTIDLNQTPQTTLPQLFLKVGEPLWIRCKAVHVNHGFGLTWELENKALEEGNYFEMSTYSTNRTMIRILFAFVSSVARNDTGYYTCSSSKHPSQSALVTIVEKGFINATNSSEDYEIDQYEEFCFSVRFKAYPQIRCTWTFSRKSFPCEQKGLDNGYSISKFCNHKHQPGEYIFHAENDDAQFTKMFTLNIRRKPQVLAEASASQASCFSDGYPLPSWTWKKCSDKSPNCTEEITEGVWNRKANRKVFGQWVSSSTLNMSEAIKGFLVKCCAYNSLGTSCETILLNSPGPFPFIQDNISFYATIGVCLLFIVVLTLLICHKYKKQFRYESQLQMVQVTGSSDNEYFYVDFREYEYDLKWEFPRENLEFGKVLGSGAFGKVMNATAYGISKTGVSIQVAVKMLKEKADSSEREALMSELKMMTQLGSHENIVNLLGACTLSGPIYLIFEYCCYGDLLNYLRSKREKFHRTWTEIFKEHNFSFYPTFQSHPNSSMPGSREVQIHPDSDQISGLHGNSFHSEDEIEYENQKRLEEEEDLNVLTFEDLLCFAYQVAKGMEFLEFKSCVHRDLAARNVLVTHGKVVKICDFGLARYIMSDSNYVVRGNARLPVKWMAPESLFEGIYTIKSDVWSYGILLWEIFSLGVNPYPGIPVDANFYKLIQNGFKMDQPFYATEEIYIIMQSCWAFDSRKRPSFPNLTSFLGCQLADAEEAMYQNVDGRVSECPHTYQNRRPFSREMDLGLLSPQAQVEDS
To be noted: FLT3(D835Y); 1 μM; read-out: % control.

Experiment [2] deals with T2, panel of 468 kinases (Homo sapiens, UniProt P51955).
T2 construct: purchased KINOMEscan (ScanMAX) service
T2 sequence (P51955 1-445): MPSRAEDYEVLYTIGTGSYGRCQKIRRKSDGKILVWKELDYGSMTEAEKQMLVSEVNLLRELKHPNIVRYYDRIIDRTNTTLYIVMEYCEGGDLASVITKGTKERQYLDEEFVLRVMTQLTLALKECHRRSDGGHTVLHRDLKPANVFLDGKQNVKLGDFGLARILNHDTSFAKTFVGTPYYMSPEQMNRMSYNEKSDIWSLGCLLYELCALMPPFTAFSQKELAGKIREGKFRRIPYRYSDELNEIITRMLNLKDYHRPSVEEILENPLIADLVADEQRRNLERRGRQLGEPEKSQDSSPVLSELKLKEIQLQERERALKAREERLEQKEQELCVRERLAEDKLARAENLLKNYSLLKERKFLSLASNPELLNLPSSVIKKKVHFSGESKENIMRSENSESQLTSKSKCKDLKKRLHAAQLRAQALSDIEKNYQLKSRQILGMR
To be noted: NEK2; 1 μM; read-out: % control.

Experiment [3] concerns the target T3, panel of 468 kinases (Homo sapiens, UniProt P30291).
T3 construct: purchased KINOMEscan (ScanMAX) service
To be noted: WEE1; 1 μM; read-out: % control.

Experiment [4] deals with T4, panel of 468 kinases (Homo sapiens, UniProt P08581, Y1235D).
T4 construct: purchased KINOMEscan (ScanMAX) service
T4 sequence (P08581 25-1390 Y1235D): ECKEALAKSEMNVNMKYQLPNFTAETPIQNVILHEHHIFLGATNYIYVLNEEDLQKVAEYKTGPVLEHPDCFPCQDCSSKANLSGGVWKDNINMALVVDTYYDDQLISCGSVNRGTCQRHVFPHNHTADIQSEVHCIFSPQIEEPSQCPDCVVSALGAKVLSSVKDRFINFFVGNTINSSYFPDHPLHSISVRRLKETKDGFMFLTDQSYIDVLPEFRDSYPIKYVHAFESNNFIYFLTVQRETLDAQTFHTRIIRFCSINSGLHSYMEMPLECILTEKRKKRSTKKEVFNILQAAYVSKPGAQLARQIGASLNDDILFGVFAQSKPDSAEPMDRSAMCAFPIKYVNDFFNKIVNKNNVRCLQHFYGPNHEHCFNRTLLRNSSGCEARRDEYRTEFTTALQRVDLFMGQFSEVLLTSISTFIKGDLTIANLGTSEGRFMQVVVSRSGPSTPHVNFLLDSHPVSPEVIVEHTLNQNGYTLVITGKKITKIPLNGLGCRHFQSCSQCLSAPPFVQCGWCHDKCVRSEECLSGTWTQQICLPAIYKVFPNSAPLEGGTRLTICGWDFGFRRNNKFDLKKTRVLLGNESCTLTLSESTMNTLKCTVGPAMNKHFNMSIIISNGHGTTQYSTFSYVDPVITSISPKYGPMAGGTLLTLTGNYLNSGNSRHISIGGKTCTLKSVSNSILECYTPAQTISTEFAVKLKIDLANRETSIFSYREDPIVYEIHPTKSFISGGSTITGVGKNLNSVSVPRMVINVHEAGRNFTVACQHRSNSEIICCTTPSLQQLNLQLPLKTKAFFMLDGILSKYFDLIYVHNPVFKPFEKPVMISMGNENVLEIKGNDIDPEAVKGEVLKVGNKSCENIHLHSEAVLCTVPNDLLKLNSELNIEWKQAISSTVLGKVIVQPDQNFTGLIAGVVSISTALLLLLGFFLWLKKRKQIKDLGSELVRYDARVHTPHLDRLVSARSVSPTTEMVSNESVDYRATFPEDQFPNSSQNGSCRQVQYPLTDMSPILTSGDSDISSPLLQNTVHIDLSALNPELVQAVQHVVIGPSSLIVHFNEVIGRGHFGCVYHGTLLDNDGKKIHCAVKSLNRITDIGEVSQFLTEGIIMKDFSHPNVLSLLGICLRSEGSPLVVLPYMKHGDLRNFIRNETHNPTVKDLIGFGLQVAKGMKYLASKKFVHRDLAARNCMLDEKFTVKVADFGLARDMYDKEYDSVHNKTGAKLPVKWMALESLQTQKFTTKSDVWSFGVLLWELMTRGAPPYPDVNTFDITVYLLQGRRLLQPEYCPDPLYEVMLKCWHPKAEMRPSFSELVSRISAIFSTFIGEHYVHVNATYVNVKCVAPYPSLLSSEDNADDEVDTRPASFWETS
To be noted: MET(Y1235D); 1 μM; read-out: % control.

Experiment [5] addresses T5, panel of 468 kinases (Homo sapiens, UniProt Q12866).
T5 construct: purchased KINOMEscan (ScanMAX) service
T5 sequence (Q12866 21-999): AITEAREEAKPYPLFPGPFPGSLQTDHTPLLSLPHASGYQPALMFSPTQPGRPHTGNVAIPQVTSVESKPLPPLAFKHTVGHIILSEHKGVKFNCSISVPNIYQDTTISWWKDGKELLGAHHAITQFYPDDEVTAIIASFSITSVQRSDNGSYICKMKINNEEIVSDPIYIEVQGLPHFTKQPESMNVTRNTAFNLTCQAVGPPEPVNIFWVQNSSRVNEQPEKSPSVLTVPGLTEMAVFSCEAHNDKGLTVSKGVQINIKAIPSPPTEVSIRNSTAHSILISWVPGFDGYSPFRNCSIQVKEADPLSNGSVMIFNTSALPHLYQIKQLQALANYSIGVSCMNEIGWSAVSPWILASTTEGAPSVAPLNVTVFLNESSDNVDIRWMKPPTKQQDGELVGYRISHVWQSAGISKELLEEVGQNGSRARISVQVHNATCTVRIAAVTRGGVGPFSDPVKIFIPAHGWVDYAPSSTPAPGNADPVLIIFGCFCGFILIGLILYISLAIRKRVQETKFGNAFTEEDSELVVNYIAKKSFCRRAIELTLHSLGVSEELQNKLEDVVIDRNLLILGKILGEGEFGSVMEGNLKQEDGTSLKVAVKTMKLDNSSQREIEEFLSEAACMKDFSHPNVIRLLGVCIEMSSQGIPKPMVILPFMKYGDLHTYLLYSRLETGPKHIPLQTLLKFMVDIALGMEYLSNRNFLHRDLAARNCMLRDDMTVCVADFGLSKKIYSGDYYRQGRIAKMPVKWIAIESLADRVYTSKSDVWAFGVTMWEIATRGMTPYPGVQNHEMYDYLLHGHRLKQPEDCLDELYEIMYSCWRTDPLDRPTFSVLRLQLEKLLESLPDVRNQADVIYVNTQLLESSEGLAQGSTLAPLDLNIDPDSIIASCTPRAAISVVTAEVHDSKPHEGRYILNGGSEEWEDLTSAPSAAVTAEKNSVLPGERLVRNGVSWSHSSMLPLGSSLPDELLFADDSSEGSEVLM
To be noted: MERTK; 1 μM; read-out: % control.

Experiment [6] concerns the target T6, panel of 468 kinases (Mycobacterium tuberculosis, UniProt P9WI81).
T6 construct: purchased KINOMEscan (ScanMAX) service
To be noted: read-out: % control.

T6 sequence (P9WI81 whole entry): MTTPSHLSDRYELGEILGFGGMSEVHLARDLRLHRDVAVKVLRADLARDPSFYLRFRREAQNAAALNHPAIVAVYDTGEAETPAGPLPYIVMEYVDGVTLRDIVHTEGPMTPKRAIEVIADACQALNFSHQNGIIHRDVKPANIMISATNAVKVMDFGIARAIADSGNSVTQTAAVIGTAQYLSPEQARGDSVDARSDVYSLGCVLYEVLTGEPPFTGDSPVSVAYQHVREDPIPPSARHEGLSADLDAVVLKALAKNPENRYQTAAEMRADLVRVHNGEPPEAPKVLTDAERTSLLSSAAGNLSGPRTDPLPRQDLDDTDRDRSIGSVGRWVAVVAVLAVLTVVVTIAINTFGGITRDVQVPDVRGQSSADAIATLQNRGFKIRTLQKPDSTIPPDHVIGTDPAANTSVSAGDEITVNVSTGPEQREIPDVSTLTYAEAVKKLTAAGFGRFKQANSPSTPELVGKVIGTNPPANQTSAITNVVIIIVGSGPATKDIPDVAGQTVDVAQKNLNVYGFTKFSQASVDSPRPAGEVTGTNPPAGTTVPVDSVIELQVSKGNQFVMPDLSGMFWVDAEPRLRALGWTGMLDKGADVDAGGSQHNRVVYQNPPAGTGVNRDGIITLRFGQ
T3 sequence (P30291 whole entry): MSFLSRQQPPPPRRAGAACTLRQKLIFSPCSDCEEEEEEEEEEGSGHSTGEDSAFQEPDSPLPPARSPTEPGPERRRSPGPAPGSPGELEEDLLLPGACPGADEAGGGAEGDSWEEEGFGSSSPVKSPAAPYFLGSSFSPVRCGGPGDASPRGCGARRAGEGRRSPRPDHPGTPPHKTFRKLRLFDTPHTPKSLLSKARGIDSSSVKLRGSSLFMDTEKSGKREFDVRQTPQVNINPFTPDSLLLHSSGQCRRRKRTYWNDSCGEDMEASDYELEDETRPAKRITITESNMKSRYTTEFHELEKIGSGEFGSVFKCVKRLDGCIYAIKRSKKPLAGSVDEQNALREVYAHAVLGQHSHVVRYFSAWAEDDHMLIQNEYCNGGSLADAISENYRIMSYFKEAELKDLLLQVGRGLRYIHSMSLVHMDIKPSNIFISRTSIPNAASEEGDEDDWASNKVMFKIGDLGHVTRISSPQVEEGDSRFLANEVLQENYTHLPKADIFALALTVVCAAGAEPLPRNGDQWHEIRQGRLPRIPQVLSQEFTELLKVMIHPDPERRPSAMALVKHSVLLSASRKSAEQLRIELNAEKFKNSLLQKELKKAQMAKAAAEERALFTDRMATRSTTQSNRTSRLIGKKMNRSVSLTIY

In the case of `CNc1nc(Nc2ccc(C(=O)N3CCC(N4CCOCC4)CC3)c3c2OCO3)nc2[nH]cc(Cl)c12` [Compound 75, (7-((5-chloro-4-(methylamino)-7H-pyrrolo[2,3-d]pyrimidin-2-yl)amino)benzo[d][1,3]dioxol-4-yl)(4-morpholinopiperidin-1-yl)methanone], the remaining binding at 1 µM on panel of 468 kinases [1] worked out at 14%; on panel of 468 kinases [2], 100%; on panel of 468 kinases [3], 95%; at panel of 468 kinases [4] it was 100%; on panel of 468 kinases [5], 85%; on panel of 468 kinases [6], 68%.

Consider `CNc1nc(Nc2ccc(P3(=O)CCN(C4CCOCC4)CC3)cc2OC)nc2[nH]cc(Cl)c12` [Compound 77, 4-(4-((5-chloro-4-(methylamino)-7H-pyrrolo[2,3-d]pyrimidin-2-yl)amino)-3-methoxyphenyl)-1-(tetrahydro-2H-pyran-4-yl)-1,4-azaphosphinane 4-oxide], for which the remaining binding at 1 µM at panel of 468 kinases [1] is 47%; at panel of 468 kinases [2] it was 100%; on panel of 468 kinases [3], 93%; at panel of 468 kinases [4], 100%; on panel of 468 kinases [5] it was 98%; on panel of 468 kinases [6], 100%.

For `CNc1nc(Nc2ccc(S(=O)(=O)N3CCC(N4CCOCC4)CC3)cc2OC)nc2[nH]cc(Cl)c12` [Compound 12, 5-chloro-N2-(2-methoxy-4-((4-morpholinopiperidin-1-yl)sulfonyl)phenyl)-N4-methyl-7H-pyrrolo[2,3-d]pyrimidine-2,4-diamine], the remaining binding at 1 µM on panel of 468 kinases [1] is 96%; at panel of 468 kinases [2], 100%; on panel of 468 kinases [3], 78%; on panel of 468 kinases [4], 100%; at panel of 468 kinases [5], 96%; at panel of 468 kinases [6] it was 93%.
